Results: PubChem BioAssay (NCI)
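All cell lines were grown in 96-well plates and treated with compound for 48 hours. TGI: total growth inhibition.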

What was measured:
Assay in all cases: NCI anticancer screen, dose series, 48 h
[1] = system: COLO 205 colon
[2] = system: NCI-H226 lung
[3] = system: M14 melanoma
[4] = system: LOX IMVI melanoma
[5] = system: HOP-92 NSCLC
[6] = system: UACC-62 melanoma
[7] = system: BT-549 breast
[8] = system: NCI/ADR-RES ovarian
[9] = system: MDA-MB-435
[10] = system: A498 renal
[11] = system: RXF 393 renal
[12] = system: SW-620 colon
[13] = system: NCI-H23 lung
[14] = system: HL-60(TB) leukemia
[15] = system: EKVX NSCLC
[16] = system: SF-268 CNS
[17] = system: HCC-2998 colon
[18] = system: SF-539 CNS
[19] = system: SK-MEL-5 melanoma
[20] = system: OVCAR-3 ovarian
[21] = system: HS 578T breast
[22] = system: DU-145 prostate
[23] = system: SNB-75 CNS
[24] = system: 786-0 renal
[25] = system: KM12 colon
[26] = system: NCI-H460 lung
[27] = system: RPMI-8226 leukemia
[28] = system: OVCAR-5 ovarian
[29] = system: SK-MEL-2 melanoma
[30] = system: NCI-H522 lung
[31] = system: SNB-19 CNS
[32] = system: OVCAR-8 ovarian
[33] = system: OVCAR-4 ovarian
[34] = system: U251 CNS
[35] = system: T-47D breast
[36] = system: UACC-257 melanoma
[37] = system: SF-295 CNS
[38] = system: UO-31 renal
[39] = system: A549 NSCLC
[40] = system: TK-10 renal
[41] = system: SN12C renal
[42] = system: SR leukemia
[43] = system: HT29 colon
[44] = system: SK-MEL-28 melanoma
[45] = system: ACHN renal
[46] = system: HCT-116 colon
[47] = system: MDA-N
[48] = system: PC-3 prostate
[49] = system: CAKI-1 renal
[50] = system: HCT-15 colon
[51] = system: IGROV1 ovarian
[52] = system: MCF7 breast
[53] = system: MOLT-4 leukemia
[54] = system: K-562 leukemia
[55] = system: HOP-62 NSCLC
[56] = system: MDA-MB-231 breast
[57] = system: SK-OV-3 ovarian
[58] = system: MALME-3M melanoma
[59] = system: CCRF-CEM leukemia

Measured: TGI

N#Cc1ccc(-c2nc3c(N)nc(-c4ccccc4)nc3o2)cc1
27.7 µM: [34]
22.3 µM: [18]
46.2 µM: [56]
not listed: [57] | [58] | [59]
> 100 µM: all other assays above

O/N=C(/CC(O)(C(F)(F)F)C(F)(F)F)c1ccccc1
not listed: [38]
> 10 µM: all other assays above
